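Here, GI50 denotes the concentration required for 50% inhibition of growth. TGI: concentration producing complete growth inhibition.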
Columns and labels:
Assay in all cases: NCI-60 cell line screen, 384-well format
[1] = test system: LOX IMVI melanoma
[2] = test system: IGROV1 ovarian
[3] = test system: HOP-92 NSCLC
[4] = test system: PC-3 prostate
[5] = test system: EKVX NSCLC
[6] = test system: A498 renal
[7] = test system: T-47D breast
[8] = test system: SN12C renal
[9] = test system: HS 578T breast
[10] = test system: SW-620 colon
[11] = test system: MDA-MB-231 breast
[12] = test system: SK-OV-3 ovarian
[13] = test system: SK-MEL-2 melanoma
[14] = test system: OVCAR-5 ovarian
[15] = test system: HCT-15 colon
[16] = test system: UACC-257 melanoma
[17] = test system: HCC-2998 colon
[18] = test system: UO-31 renal
[19] = test system: HT29 colon
[20] = test system: KM12 colon
[21] = test system: COLO 205 colon
[22] = test system: SK-MEL-28 melanoma
[23] = test system: NCI-H322M lung
[24] = test system: NCI-H226 lung
[25] = test system: UACC-62 melanoma
[26] = test system: ACHN renal
[27] = test system: NCI-H522 lung
[28] = test system: SF-268 CNS
[29] = test system: OVCAR-3 ovarian
[30] = test system: CAKI-1 renal
[31] = test system: K-562 leukemia
[32] = test system: SNB-19 CNS
[33] = test system: SF-295 CNS
[34] = test system: TK-10 renal
[35] = test system: U251 glioblastoma
[36] = test system: OVCAR-4 ovarian
[37] = test system: MCF7 breast
[38] = test system: MALME-3M melanoma
[39] = test system: A549 NSCLC
[40] = test system: OVCAR-8 ovarian
[41] = test system: MDA-MB-435 melanoma
[42] = test system: SK-MEL-5 melanoma
[43] = test system: HCT-116 colon
[44] = test system: SNB-75 CNS

Nc1ccn(C2OC(CO)C(O)C2(F)F)c(=O)n1 (configuration not stated)
TGI [1]: 33 nM
TGI [2]: > 100000 nM
GI50 [3]: 40.7 nM
TGI [3]: > 33100 nM
GI50 [4]: > 100000 nM
TGI [4]: > 100000 nM
GI50 [5]: 8710 nM
TGI [5]: > 100000 nM
TGI [6]: > 100000 nM
GI50 [7]: 552 nM
TGI [7]: > 100000 nM
GI50 [8]: 18.5 nM
TGI [8]: 64.9 nM
GI50 [9]: < 33.3 nM
TGI [9]: > 40800 nM
GI50 [10]: < 15.8 nM
TGI [10]: > 100000 nM
GI50 [11]: 95.7 nM
GI50 [12]: 31.8 nM
TGI [12]: > 100000 nM
TGI [13]: 15300 nM
GI50 [14]: 48.1 nM
TGI [14]: > 100000 nM
TGI [15]: > 100000 nM
GI50 [16]: < 18.3 nM
TGI [17]: > 100000 nM
TGI [18]: < 21.3 nM
GI50 [19]: < 11.2 nM
TGI [19]: 3040 nM
GI50 [20]: 15.3 nM
TGI [20]: > 100000 nM
GI50 [21]: 27.7 nM
TGI [21]: 140 nM
TGI [22]: > 100000 nM
GI50 [23]: 1090 nM
TGI [23]: > 100000 nM
GI50 [24]: < 16.2 nM
TGI [24]: 73.4 nM
TGI [25]: 19.4 nM
TGI [26]: < 10.8 nM
TGI [27]: 5710 nM
TGI [28]: 18.5 nM
TGI [29]: > 100000 nM
TGI [30]: 173 nM
TGI [31]: > 100000 nM
TGI [32]: 517 nM
GI50 [33]: < 14.6 nM
TGI [33]: 25.4 nM
TGI [34]: > 100000 nM
TGI [35]: 25.2 nM
GI50 [36]: > 100000 nM
TGI [36]: > 100000 nM
TGI [37]: > 100000 nM
TGI [38]: > 22100 nM
TGI [39]: > 100000 nM
TGI [40]: < 33.5 nM
GI50 [41]: 301 nM
TGI [41]: > 100000 nM
TGI [42]: < 16.8 nM
TGI [43]: > 36900 nM
GI50 [44]: < 15.5 nM
TGI [44]: < 30.5 nM

— PubChem BioAssay (NCI)
